# In article PMC8997165, “Transcriptional CDK Inhibitors as Potential Treatment Option for Testicular Germ Cell Tumors” (Cancers, 2022):
# Legend:
# Type in all cases: cell-based, human
# [1] = system: NCCIT cells; test: XTT cell viability assay, NCCIT
# Description: (§1) The following cell lines were used 2102EP, 2102EP-R, NCCIT, NCCIT-R (all ECs), TCam2 (seminoma cell line), FS1 (Sertoli cell line) and MPAF (human adult fibroblast cell line). Cells were cultivated as described previously. In brief, the ECs were cultivated in Dulbecco’s modified Eagle’s medium (DMEM) supplemented with 10% fetal bovine serum (FBS), 1% penicillin–streptomycin and […] L-glutamine. FS1 cells were grown in DMEM supplemented with 20% FSB, 1% penicillin–streptomycin, 200 mM L-glutamine and 1% nonessential amino acids (NEAA). MPAF cells were cultured in DMEM supplemented with 10% FBS, 1% penicillin–streptomycin, 200 mM L-glutamine and 1% NEAA. TCam2 cell line was cultured in RPMI medium supplemented with 10% FBS, 1% penicillin–streptomycin and […] L-glutamine. All cell lines were kept at 37 °C and 7.5% CO2. 2102EP and NCCIT were a kind gift from Prof. Dr. L. Looijenga (Princess Máxima Center for Pediatric Oncology, Utrecht, The Netherlands). Cisplatin-resistant lines 2102EP-R and NCCIT-R were obtained from PD Dr. F. Honecker (Breast and Tumor Center, ZeTup Silberturm, St. Gallen, Switzerland). MPAFs were a kind gift from […] (Bonn University, Institute of Reconstructive Neurobiology, Bonn, Germany). FS1 cells were obtained from Prof. Dr. V. Schumacher (Boston Children’s Hospital, Department of Urology; Harvard Medical School, Department of Surgery, Boston, MA, USA).
# (§2) The assay was performed based on the reduction in XTT tetrazolium salt as described previously. In summary, 3000 cells were seeded per well of a 96-well cell culture plate in 100 µL of cell culture medium. The next day, cells were treated with CDK inhibitor or CDK degrader for 24/48/72 h. For XTT assay, 0.6 mg/mL XTT sodium salt was dissolved in cell culture medium (DMEM or RPMI) and supplemented with 25 µM electron carrier N-methyl dibenzopyrazine methyl sulfate (PMS). A total of 50 µL of XTT/PMS was added to each well and incubated for 4 h at 37 °C, 7.5% CO2. For readout, absorption was measured at 450 nm and 650 nm. Specific XTT signal (450 nm) was subtracted by nonspecific absorbance (650) and blank (cell culture medium). Averages of technical triplicates were calculated, and treated sample was referenced to the corresponding dimethyl sufoxide (DMSO) control. Experiment was repeated several times to obtain biological replicates. For statistical analysis, two-tailed Student’s t-test was applied.
# [2] = system: TCam2 cells; test: XTT cell viability assay, TCam2
# Description: as §1, §2
# [3] = system: MPAF cells; test: XTT cell viability assay, MPAF fibroblast control; settings: for IC50: XTT viability
# Description: as §1, §2
# [4] = system: 2102EP-R cells; test: XTT cell viability assay, 2102EP-R (cisplatin-resistant)
# Description: as §1, §2
# [5] = system: 2102EP cells; test: XTT cell viability assay, 2102EP
# Description: as §1, §2
# [6] = system: FS1 cells; test: XTT cell viability assay, FS1 Sertoli control
# Description: as §1, §2
# [7] = system: NCCIT-R cells; test: XTT cell viability assay, NCCIT-R (cisplatin-resistant)
# Description: as §1, §2
# [8] = system: TGCT cell lines; test: XTT cell viability assay, summarised over TGCT tumor cell lines
# Description: as §1, §2
# [9] = system: TGCT and control cell lines; test: Hoechst-FACS cell cycle analysis; settings: 20 h; NVP2 and SY0351 10 nM, YKL-5-124 and THZ531 100 nM
# Description: (§3) Cells were seeded in 6-well cell culture plates (1.5 × 10^5 cells/well). […] For cell cycle analysis, cells were harvested after 20 h of treatment and resuspended in PBS. Ice-cold methanol was added dropwise while shaking until 70% methanol v/v was reached. Cells were incubated for 2 h at 4 °C and subsequently washed twice with cold PBS. Staining (2 µg/mL Hoechst-33342, 50 µg/mL RNaseA in PBS) was performed for 30 min at 37 °C. The cell cycle distribution was measured in an FACS Canto (BD BioSciences, Heidelberg, Germany) and analyzed using FlowJo™ v10.8 Software (BD BioSciences, Heidelberg, Germany). For apoptosis analysis, PE AnnexinV Apoptosis Detection Kit with 7-AAD (BioLegend, San Diego, CA USA) was used according to the manufacturer’s manual. Measurement was performed in an FACS Canto while analysis was performed in the corresponding BD FACSDiva software^TM (BD BioSciences, Heidelberg, Germany). Two-tailed Student’s t-test was applied for calculation of significance.
# [10] = system: TGCT and control cell lines; test: 7AAD/AnnexinV FACS apoptosis analysis, TGCT and control cell lines; settings: tumor cell lines, 100 nM, 24 and 48 h
# Description: as §3
smiles,measurement,setting,value
CN(C)C/C=C/C(=O)Nc1ccc(C(=O)Nc2cccc(Nc3ncc(Cl)c(-c4c[nH]c5ccccc45)n3)c2)cc1 [THZ1],IC50,[1]; 24 h,> 1000 nM
same,IC50,[1]; 48 h,92.9 nM
same,IC50,[1]; 72 h,9.3 nM
same,IC50,"[2]; TCam2, 24 h",> 1000 nM
same,IC50,"[2]; TCam2, 48 h",> 1000 nM
same,IC50,"[2]; TCam2, 72 h",847 nM
same,IC50,[3]; 24 h,> 1000 nM
same,IC50,[3]; 48 h,> 1000 nM
same,IC50,[3]; 72 h,> 1000 nM
same,IC50,[4]; 24 h,235 nM
same,IC50,[4]; 48 h,16.3 nM
same,IC50,[4]; 72 h,9.9 nM
same,IC50,[5]; 24 h,95.6 nM
same,IC50,[5]; 48 h,26.3 nM
same,IC50,[5]; 72 h,6.7 nM
same,IC50,"[6]; FS1, 24 h",> 1000 nM
same,IC50,"[6]; FS1, 48 h",> 1000 nM
same,IC50,"[6]; FS1, 72 h",> 1000 nM
same,IC50,[7]; 24 h,929 nM
same,IC50,[7]; 48 h,145 nM
same,IC50,[7]; 72 h,16.2 nM
"CCc1cnn2c(NCc3ccc[n+]([O-])c3)cc(N3CCCC[C@H]3CCO)nc12 [Dinaciclib, dinaciclib]",viability (XTT),"[8]; EC cell lines (2102EP, 2102EP-R, NCCIT, NCCIT-R), 1 nM",strong decrease in viability
same,sensitivity (XTT viability),[3],almost resistant
CC(C)(C)c1cnc(CSc2cnc(NC(=O)C3CCN(CC(=O)NCCOCCOCCOCCNc4cccc5c4C(=O)N(C4CCC(=O)NC4=O)C5=O)CC3)s2)o1 (stereo not shown) [THAL-SNS-032],IC50,"[8]; Homo sapiens, 72 h, tumor (TGCT) cell lines, XTT viability, read-out: IC50 at 72 h, range over tumor cell lines",30 to 40 nM
same,IC50,"[1]; Homo sapiens, 24 h",149 nM
same,IC50,"[1]; Homo sapiens, 48 h",50.6 nM
same,IC50,"[1]; Homo sapiens, 72 h",30.1 nM
same,IC50,"[2]; Homo sapiens, TCam2, 24 h",140 nM
same,IC50,"[2]; Homo sapiens, TCam2, 48 h",76.7 nM
same,IC50,"[2]; Homo sapiens, TCam2, 72 h",39.6 nM
same,viability (XTT),[3]; 1 and 10 nM,not affected
same,viability (XTT),[3]; 100 and 500 nM,minimal decrease in viability
same,IC50,"[3]; Homo sapiens, Fibroblast, 24 h",> 1000 nM
same,IC50,"[3]; Homo sapiens, Fibroblast, 48 h",> 1000 nM
same,IC50,"[3]; Homo sapiens, Fibroblast, 72 h",> 1000 nM
same,IC50,"[5]; Homo sapiens, 24 h",164 nM
same,IC50,"[5]; Homo sapiens, 48 h",39.5 nM
same,IC50,"[5]; Homo sapiens, 72 h",34.8 nM
same,IC50,"[6]; Homo sapiens, FS1, 24 h",> 1000 nM
same,IC50,"[6]; Homo sapiens, FS1, 48 h",> 1000 nM
same,IC50,"[6]; Homo sapiens, FS1, 72 h",> 1000 nM
CN(C)C/C=C/C(=O)Nc1ccc(C(=O)N2CCC[C@@H](Nc3ncc(Cl)c(-c4c[nH]c5ccccc45)n3)C2)cc1 [THZ531],IC50,"[1]; Homo sapiens, 24 h",> 1000 nM
same,IC50,"[1]; Homo sapiens, 48 h",> 1000 nM
same,IC50,"[1]; Homo sapiens, 72 h",96.6 nM
same,effect on cell cycle,[9],only mild effects on the cell cycle
same,IC50,"[2]; Homo sapiens, TCam2, 24 h",> 1000 nM
same,IC50,"[2]; Homo sapiens, TCam2, 48 h",> 1000 nM
same,IC50,"[2]; Homo sapiens, TCam2, 72 h",> 1000 nM
same,IC50,"[3]; Homo sapiens, Fibroblast, 24 h",> 1000 nM
same,IC50,"[3]; Homo sapiens, Fibroblast, 48 h",> 1000 nM
same,IC50,"[3]; Homo sapiens, Fibroblast, 72 h",> 1000 nM
same,IC50,"[4]; Homo sapiens, 24 h",> 1000 nM
same,IC50,"[4]; Homo sapiens, 48 h",228 nM
same,IC50,"[4]; Homo sapiens, 72 h",164 nM
same,IC50,"[5]; Homo sapiens, 24 h",> 1000 nM
same,IC50,"[5]; Homo sapiens, 48 h",180 nM
same,IC50,"[5]; Homo sapiens, 72 h",74.5 nM
same,IC50,"[6]; Homo sapiens, FS1, 24 h",> 1000 nM
same,IC50,"[6]; Homo sapiens, FS1, 48 h",> 1000 nM
same,IC50,"[6]; Homo sapiens, FS1, 72 h",> 1000 nM
same,IC50,"[7]; Homo sapiens, 24 h",> 1000 nM
same,IC50,"[7]; Homo sapiens, 48 h",> 1000 nM
same,IC50,"[7]; Homo sapiens, 72 h",137 nM
same,apoptosis induction,[10],moderate increase in apoptosis induction
